Columns and labels:
[1] = test system: C57BL/6 mice given Cobalt 60 gamma radiation; assay: Restoration of radiation-induced hair loss in mice, aerosol treatment (Example 2); type: in vivo, mouse; conditions: mice pre-exposed to 5 Gy or 2.5 Gy, then 10 Gy at day 75; hair loss over approximately 20% of body; one micromolar by aerosol 15 min/day, 9 days of treatment
Experimental: C57BL/6 mice were given a Cobalt 60 gamma radiation treatment on Sep. 24, 2002 of either 10 Gy, 7.5 Gy, 5 Gy, or 2.5 Gy. The 10 Gy mice died at an average of 11.3 days after the radiation exposure. All of the other mice in the other radiation exposure groups survived at least until Dec. 18, 2002. At 75 days after the initial radiation exposure, the 5 Gy and 2.5 Gy mice were administered a 10 Gy dose of Cobalt 60 gamma radiation. On the day of the second 10 Gy radiation exposure, it was noted that the 5 Gy and 2.5 Gy mice had hair loss over approximately 20% of their body with the most significant hair loss in their leg areas and around their ears. Half of the 5 Gy and 2.5 Gy (N=10) mice were administered a one micromolar Homspera™ dose by aerosol for 15 min/day beginning the day of the 10 Gy radiation exposure.

[2] = test system: C57BL/6 mouse irradiated with 7.5 Gy gamma radiation; assay: Hair regrowth in an irradiated mouse (Example 1); type: in vivo; conditions: 12 days of treatment, FIG. 1A, untreated control showed no new growth hair
From the text: FIG. 1A. A C57BL/6 mouse irradiated with 7.5 Gy gamma radiation on Sep. 24, 2003 and given 12 days of [Sar, Met(02)^11]-substance P (Homspera™) treatment.
FIG. 1B. A C57BL/6 mouse irradiated with 7.5 Gy gamma radiation on Sep. 24, 2003 and given no Homspera™ treatment.
A C57BL/6 mouse was irradiated with 7.5 Gy gamma radiation on Sep. 24, 2003 and given 12 days of [Sar, Met(02)^11]-substance P (Homspera™) treatment. […] As a control, a C57BL/was 6 mouse irradiated with 7.5 Gy gamma radiation on Sep. 24, 2003 and given no Homspera™ treatment. No new growth hair was observed.

[3] = test system: C57BL/6 mice, lethal dose of gamma radiation (7.75 Gy); assay: Hair retention and immune status after a lethal dose of gamma radiation (Example 3); type: in vivo, mouse; conditions: for hair retention: photographed at Day +56 and Day +90 after radiation
From the text: FIG. 2A. Group 1 (90 day treatment of Homspera™) mice photographed at day 56 after radiation.
FIG. 2B. Group 2 (35 day treatment of Homspera™) mice photographed at day 56 after radiation.
FIG. 2C. Group 1 (90 day treatment of Homspera™) mice photographed at day 90 after radiation.
FIG. 2D. Group 2 (35 day treatment of Homspera™) mice photographed at day 90 after radiation.
C57BL/6 mice were divided into three groups. Groups 1 and 2 underwent a lethal dose of gammna radiation (7.75 Gy) on July 11th. Group 1 mice were treated with Homspera™ (50 micromolar for 35 days and then a maintenance dose of 10 micromolar until +90 days), and then they were killed at +90 days post-lethal radiation (October 9th). Their immune system status was normal compared to control mice (Group 3) that had not been treated with radiation and had not been treated with Homspera™. Group 2 mice received Homspera™ treatment for 35 days after radiation, and then the Homspera™ treatment was completely stopped.
There are two sets of pictures of the Group 1 and Group 2 mice: one set of pictures taken on September 5th at Day +56 after radiation (FIGS. 2A and 2B), and the other on October 9th at Day +90 after radiation (FIGS. 2C and 2D).

For “[Sar, Met(02)^11]-substance P [Homspera™]”, the “restoration of hair loss” value [1] was “restored their hair loss”, the new hair growth [2] was “New growth (black) hair was observed” and the hair retention ([3]; Group 1: 7.75 Gy, 90 day treatment) was “retained their hair”. The immune system status ([3]; Group 1: 7.75 Gy, 50 micromolar for 35 days, then 10 micromolar until +90 days, at +90 days, compared to untreated non-irradiated control mice (Group 3)) was “normal” and the hair retention ([3]; Group 2: 7.75 Gy, 35 day treatment then stopped) was “retained their hair”.

— US20060153789A1, “Stimulation of hair regrowth” (priority 2002, published 2006)
